Data on 2 molecules can be found in patent EP0996429B1, “SOLID STATE SOLUTIONS AND DISPERSIONS OF POORLY WATER SOLUBLE DRUGS” (MERCK PATENT GmbH, priority 1997, dated 1999).

Data set [1] can be described thus: Intrinsic dissolution of ibuprofen and HydroSolve-Ibuprofen in pH 7.2 buffer (paddle, absorbance 221 nm). The note with it: 700 ml pH 7.2 buffer, paddle 50 rpm. Format: physicochemical. As to the method:
b. Procedures: • 1.Melt Gelucire and Pluronic, and dissolve ibuprofen into the mixture. • 2.Add the above solution into Sorbitol Instant while stirring. • 3.Cool down and pass through #20 mesh screen. c. Dissolution Test Using the Dissolution Test as follows: • 1.Measure 3.3 mg and 17.2 mg of ibuprofen (20 micron) and HydroSolve - Ibuprofen, respectively. • 2.Measure the dissolution profiles using 700 ml of pH 7.2 buffer and paddle at 50 rpm. • 3.Measure the absorbance at 221 nm.

Data set [2] can be described thus: Intrinsic dissolution of phenytoin and HydroSolve-phenytoin in DI water (paddle method, absorbance 220 nm). The note with it: 900 ml D1 water, Paddle Method 50 rpm. Format: physicochemical. As to the method: b. Procedures: • 1. Melt Gelucire and Pluronic together. • 2. Dissolve the phenytoin into above solution. • 3. Congeal this suspension and pass through #20 mesh. • 4. Measure about 32 and 110 mg of phenytoin and HydroSolve - phenytoin, respectively. • 5. Measure the dissolution profiles using 900 ml of D1 water and Paddle Method at 50 rpm. • 6. Using D1 water as blank, measure the absorbance at 220 nm of each sample which is filtered through 0.45 micron filters. • 7. Calculate the percent released by standard curve: Absorbance = 0.4072 x Concentration (mg/100ml) + 0.0227 [formula] c.

`CC(C)Cc1ccc(C(C)C(=O)O)cc1` (stereo not shown) [Ibuprofen]: the “Dissolution profile (Results)” value in data set [1] (Time 10 min) is on record as 75.93; in data set [1] (Time 20 min), 81.14; in data set [1] (Time 30 min), 81.14.

With `O=C1NC(=O)C(c2ccccc2)(c2ccccc2)N1` [Phenytoin], the “% Dissolved (%)” value in data set [2] (Time 0.5 h) came out at 3.03%; in data set [2] (Time 1 h) it was 5.92%; in data set [2] (Time 2 h) it was 14.42%; in data set [2] (Time 3 h) it was 20.58%.
